Legend:
[1] = target: T1, Protein deacetylase HDAC6 (Homo sapiens, UniProt Q9UBN7); assay: Inhibition of full length His6-tagged GST-fused recombinant human HDAC6 expressed in High5 insect cells using Boc-Lys (e-acetyl)-AMC as substrate after 3 hrs by fluorescence assay; type: cell-based
T1 sequence (Q9UBN7 whole entry): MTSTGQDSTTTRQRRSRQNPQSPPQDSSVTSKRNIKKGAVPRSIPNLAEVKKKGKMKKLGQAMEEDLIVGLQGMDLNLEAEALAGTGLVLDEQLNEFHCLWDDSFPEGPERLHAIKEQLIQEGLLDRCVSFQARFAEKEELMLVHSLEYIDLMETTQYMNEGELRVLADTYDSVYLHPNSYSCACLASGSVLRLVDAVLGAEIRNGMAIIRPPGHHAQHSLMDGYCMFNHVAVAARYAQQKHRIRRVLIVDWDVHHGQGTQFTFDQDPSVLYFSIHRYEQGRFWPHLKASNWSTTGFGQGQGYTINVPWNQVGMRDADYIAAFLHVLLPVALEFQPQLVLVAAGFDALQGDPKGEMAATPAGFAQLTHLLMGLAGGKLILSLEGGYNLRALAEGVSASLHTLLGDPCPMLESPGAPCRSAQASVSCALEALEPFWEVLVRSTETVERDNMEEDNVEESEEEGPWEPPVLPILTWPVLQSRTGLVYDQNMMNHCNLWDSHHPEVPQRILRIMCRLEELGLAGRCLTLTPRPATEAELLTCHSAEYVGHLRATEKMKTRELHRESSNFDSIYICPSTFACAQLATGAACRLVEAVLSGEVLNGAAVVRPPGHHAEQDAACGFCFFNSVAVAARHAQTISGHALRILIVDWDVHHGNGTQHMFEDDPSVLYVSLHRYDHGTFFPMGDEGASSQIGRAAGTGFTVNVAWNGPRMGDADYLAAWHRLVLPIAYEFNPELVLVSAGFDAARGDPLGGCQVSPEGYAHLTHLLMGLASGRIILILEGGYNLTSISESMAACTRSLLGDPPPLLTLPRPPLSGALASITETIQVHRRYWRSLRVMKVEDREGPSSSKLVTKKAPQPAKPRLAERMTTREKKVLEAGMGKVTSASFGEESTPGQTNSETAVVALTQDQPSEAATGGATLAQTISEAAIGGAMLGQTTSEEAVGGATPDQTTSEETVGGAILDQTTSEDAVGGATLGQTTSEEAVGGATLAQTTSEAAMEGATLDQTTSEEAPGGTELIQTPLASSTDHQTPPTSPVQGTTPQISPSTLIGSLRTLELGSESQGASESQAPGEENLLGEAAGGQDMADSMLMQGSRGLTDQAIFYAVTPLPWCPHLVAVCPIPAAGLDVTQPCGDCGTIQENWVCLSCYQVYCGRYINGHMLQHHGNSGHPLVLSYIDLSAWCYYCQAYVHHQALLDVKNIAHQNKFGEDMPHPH

[2] = target: Histone deacetylase 3 (Homo sapiens, UniProt O15379); assay: Inhibition of full length His6-tagged GST-fused recombinant human HDAC3 expressed in High5 insect cells using Ac-Lys-Tyr-Lys (e-acetyl)-AMC as substrate after 24 hrs by fluorescence assay; type: cell-based
Histone deacetylase 3, sequence (O15379 whole entry, the tested form may be a part): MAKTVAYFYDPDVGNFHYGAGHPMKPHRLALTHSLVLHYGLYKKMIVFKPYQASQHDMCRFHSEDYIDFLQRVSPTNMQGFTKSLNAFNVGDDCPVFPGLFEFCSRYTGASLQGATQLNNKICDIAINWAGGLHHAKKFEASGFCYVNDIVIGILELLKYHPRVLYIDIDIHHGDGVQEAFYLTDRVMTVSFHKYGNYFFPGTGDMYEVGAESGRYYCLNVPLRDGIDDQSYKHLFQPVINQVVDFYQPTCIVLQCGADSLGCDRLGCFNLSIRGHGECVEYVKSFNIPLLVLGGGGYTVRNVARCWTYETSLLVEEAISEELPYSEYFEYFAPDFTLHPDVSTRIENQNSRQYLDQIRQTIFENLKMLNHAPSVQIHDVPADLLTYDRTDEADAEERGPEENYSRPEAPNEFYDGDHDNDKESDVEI

[3] = target: Histone deacetylase 1 (Homo sapiens, UniProt Q13547); assay: Inhibition of full length His6-tagged GST-fused recombinant human HDAC1 expressed in High5 insect cells using Ac-Lys-Tyr-Lys (e-acetyl)-AMC as substrate after 24 hrs by fluorescence assay; type: cell-based
Histone deacetylase 1, sequence (Q13547 whole entry, the tested form may be a part): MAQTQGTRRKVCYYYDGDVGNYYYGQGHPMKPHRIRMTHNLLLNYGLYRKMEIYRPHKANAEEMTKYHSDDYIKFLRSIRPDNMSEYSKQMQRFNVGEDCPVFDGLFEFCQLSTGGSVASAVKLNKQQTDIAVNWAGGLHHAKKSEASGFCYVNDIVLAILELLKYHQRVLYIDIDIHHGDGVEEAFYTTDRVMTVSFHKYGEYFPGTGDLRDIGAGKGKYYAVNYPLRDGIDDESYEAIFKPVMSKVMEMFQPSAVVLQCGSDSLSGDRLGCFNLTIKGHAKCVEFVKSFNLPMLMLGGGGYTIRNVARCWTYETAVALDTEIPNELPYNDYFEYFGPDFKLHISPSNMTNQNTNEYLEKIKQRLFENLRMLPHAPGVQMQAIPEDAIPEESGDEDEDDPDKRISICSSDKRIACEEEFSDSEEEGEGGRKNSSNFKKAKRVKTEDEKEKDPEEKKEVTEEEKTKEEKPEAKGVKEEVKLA

[4] = target: Histone deacetylase 4 (Homo sapiens, UniProt P56524); assay: Inhibition of full length His6-tagged GST-fused recombinant human HDAC4 expressed in High5 insect cells using Ac-Lys-Tyr-Lys (e-acetyl)-AMC as substrate after 24 hrs by fluorescence assay; type: cell-based
Histone deacetylase 4, sequence (P56524 whole entry, the tested form may be a part): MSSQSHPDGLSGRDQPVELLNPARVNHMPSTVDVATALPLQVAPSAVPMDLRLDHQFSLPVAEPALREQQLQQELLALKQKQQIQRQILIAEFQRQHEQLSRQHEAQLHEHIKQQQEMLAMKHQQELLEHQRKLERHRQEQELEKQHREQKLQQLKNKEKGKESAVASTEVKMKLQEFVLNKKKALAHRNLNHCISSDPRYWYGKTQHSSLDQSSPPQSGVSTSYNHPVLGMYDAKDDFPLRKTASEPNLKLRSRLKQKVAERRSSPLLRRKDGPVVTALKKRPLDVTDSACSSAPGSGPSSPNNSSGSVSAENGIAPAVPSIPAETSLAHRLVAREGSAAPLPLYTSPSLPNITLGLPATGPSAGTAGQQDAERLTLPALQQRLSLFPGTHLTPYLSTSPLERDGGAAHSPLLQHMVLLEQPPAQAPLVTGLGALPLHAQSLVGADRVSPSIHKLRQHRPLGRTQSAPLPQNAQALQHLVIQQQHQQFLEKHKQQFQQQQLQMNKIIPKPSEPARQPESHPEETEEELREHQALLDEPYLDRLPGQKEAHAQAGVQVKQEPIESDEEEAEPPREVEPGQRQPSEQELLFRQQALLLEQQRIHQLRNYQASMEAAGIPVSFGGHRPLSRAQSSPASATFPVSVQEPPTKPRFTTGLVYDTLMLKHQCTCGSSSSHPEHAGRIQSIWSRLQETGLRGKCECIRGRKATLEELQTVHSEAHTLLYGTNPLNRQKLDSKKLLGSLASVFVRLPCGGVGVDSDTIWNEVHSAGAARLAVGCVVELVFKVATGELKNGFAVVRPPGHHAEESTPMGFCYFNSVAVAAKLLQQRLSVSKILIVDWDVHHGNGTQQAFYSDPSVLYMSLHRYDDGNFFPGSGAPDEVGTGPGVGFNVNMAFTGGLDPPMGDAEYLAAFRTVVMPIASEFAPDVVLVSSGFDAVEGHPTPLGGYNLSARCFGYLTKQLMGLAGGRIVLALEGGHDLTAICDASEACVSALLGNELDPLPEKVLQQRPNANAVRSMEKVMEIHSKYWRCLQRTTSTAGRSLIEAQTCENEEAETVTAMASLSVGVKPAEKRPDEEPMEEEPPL

[5] = tested on: RPMI-8226; assay: Induction of apoptosis in human RPMI8226 cells assessed as increase in cleaved PARP level after 24 hrs by Western immunoblotting method; type: functional, cell-based
[6] = tested on: RPMI-8226; assay: Induction of apoptosis in human RPMI8226 cells assessed as early apoptotic cells at 0.3 uM after 48 hrs by annexin V-FITC/propidium iodide staining-based flow cytometry (reference value: 6.3%); type: functional
[7] = tested on: RPMI-8226; assay: cells; type: functional; settings: Homo sapiens, RPMI-8226, 48 h
[8] = tested on: LP-1; assay: Antiproliferative activity against human LP-1 cells after 72 hrs by CellTiter 96 aqueous non-radioactive cell proliferation assay; type: functional, cell-based; settings: LP-1, 72 h
[9] = tested on: RPMI-8226; assay: Induction of apoptosis in human RPMI8226 cells assessed as dead cells at 0.3 uM after 48 hrs by annexin V-FITC/propidium iodide staining-based flow cytometry (reference value: 2%); type: functional
[10] = tested on: RPMI-8226; assay: Induction of apoptosis in human RPMI8226 cells assessed as early apoptotic cells at 1 uM after 48 hrs by annexin V-FITC/propidium iodide staining-based flow cytometry (reference value: 6.3%); type: functional
[11] = Antiproliferative activity against human NCI-H929 cells after 72 hrs by CellTiter 96 aqueous non-radioactive cell proliferation assay; type: functional, cell-based; settings: NCI-H929, 72 h
[12] = Antiproliferative activity against human RPMI8226 cells after 72 hrs by CellTiter 96 aqueous non-radioactive cell proliferation assay; type: functional, cell-based; settings: RPMI-8226, 72 h
[13] = Antiproliferative activity against human JeKo1 cells after 72 hrs by CellTiter 96 aqueous non-radioactive cell proliferation assay; type: functional, cell-based; settings: JeKo-1, 72 h
[14] = tested on: RPMI-8226; assay: Induction of apoptosis in human RPMI8226 cells assessed as viable cells at 1 uM after 48 hrs by annexin V-FITC/propidium iodide staining-based flow cytometry (reference value: 87.2%); type: functional; settings: RPMI-8226, 48 h, read-out: Activity
[15] = tested on: RPMI-8226; assay: Induction of apoptosis in human RPMI8226 cells assessed as dead cells at 1 uM after 48 hrs by annexin V-FITC/propidium iodide staining-based flow cytometry (reference value: 2%); type: functional
[16] = Antiproliferative activity against human MM1S cells after 72 hrs by CellTiter 96 aqueous non-radioactive cell proliferation assay; type: functional, cell-based; settings: MM1.S
[17] = tested on: RPMI-8226; assay: Induction of apoptosis in human RPMI8226 cells assessed as viable cells at 0.3 uM after 48 hrs by annexin V-FITC/propidium iodide staining-based flow cytometry (reference value: 87.2%); type: functional; settings: RPMI-8226, 48 h, read-out: Activity
[18] = tested on: RPMI-8226; assay: Induction of apoptosis in human RPMI8226 cells assessed as late apoptotic cells at 0.3 uM after 48 hrs by annexin V-FITC/propidium iodide staining-based flow cytometry (reference value: 4.4%); type: functional
[19] = tested on: RPMI-8226; assay: Induction of apoptosis in human RPMI8226 cells assessed as late apoptotic cells at 1 uM after 48 hrs by annexin V-FITC/propidium iodide staining-based flow cytometry (reference value: 4.4%); type: functional
[20] = Antiproliferative activity against human Mino cells after 72 hrs by CellTiter 96 aqueous non-radioactive cell proliferation assay; type: functional, cell-based

O=C(NCCCCC(=O)C(F)(F)F)c1nc(-c2nccs2)sc1Cc1ccccc1
IC50 [1]: 58.4 nM
IC50 [2]: 65.1 nM
IC50 [3]: 66.1 nM
IC50 [4]: 68.2 nM

CC(C)Cc1sc(-c2nccs2)nc1C(=O)NCCCCC(=O)C(F)(F)F
IC50 [4]: 120 nM

O=C(NCCCCCC(=O)C(F)(F)F)c1nc(-c2nccs2)sc1C1CC1
IC50 [4]: 133 nM

O=C(NCCCCC(=O)C(F)(F)F)c1nc(-c2nc3c(s2)CCCC3)sc1C1CC1
IC50 [4]: 23.4 nM

Cc1cnc(-c2nc(C(=O)NCCCCC(=O)C(F)(F)F)c(C3CC3)s2)s1
IC50 [1]: 23.4 nM
IC50 [4]: 32 nM

O=C(NCCCCC(=O)C(F)(F)F)c1nc(-c2nccs2)sc1C1CC1
Activity [5]: Dose-dependent effect
Activity [6]: 15.4%
viability at 3 µM [7]: 21.1%
IC50 [8]: 370 nM
Activity [9]: 2.8%
Activity [10]: 13.4%
IC50 [11]: 1230 nM
IC50 [12]: 85 nM
IC50 [13]: 64 nM
viability at 1 µM [14]: 28.2%
Activity [15]: 7.7%
IC50 [16]: 390 nM
viability at 0.3 µM [17]: 57.8%
Activity [18]: 23.9%
Activity [19]: 50.7%
IC50 [20]: 120 nM
IC50 [4]: 31.5 nM

Nc1ccccc1NC(=O)CCCCNC(=O)c1nc(-c2nccs2)sc1C1CC1
IC50 [4]: 2090 nM

O=C(NCCCCCNC(=O)c1nc(-c2nccs2)sc1C1CC1)c1cccc(-c2noc(C(F)(F)F)n2)c1
IC50 [1]: > 10000 nM
IC50 [2]: > 10000 nM
IC50 [3]: > 10000 nM
IC50 [4]: > 10000 nM

O=C(NCCCCC(O)C(F)(F)F)c1nc(-c2nccs2)sc1C1CC1 (stereo not drawn)
IC50 [1]: > 10000 nM
IC50 [2]: 8860 nM
IC50 [3]: > 10000 nM
IC50 [4]: > 10000 nM

O=C(CCCCCCC(=O)Nc1ccccc1)NO [VORINOSTAT]
IC50 [16]: 820 nM

O=C(NCCCC(=O)C(F)(F)F)c1nc(-c2nccs2)sc1C1CC1
IC50 [4]: > 10000 nM

O=C(NO)NCCCCNC(=O)c1nc(-c2nccs2)sc1C1CC1
IC50 [4]: > 10000 nM
